Measurements: patent US20180177845A1, “METHOD FOR TREATMENT OR PREVENTION OF A CANCER” (priority 2016, published 2018)
Where no end group is shown, it is not given here.

How the values were obtained:
β4 integrin/FAK complex [1] = test: immunoprecipitation of β4 integrin and FAK in HCT-116 cells; type: cell-based, human
Description: (§1) Cells or tissue samples were homogenized and extracted for Western blotting. For immunoprecipitation, proteins were incubated with antibodies as indicated at 4° C. overnight, followed by incubation for 4 hrs with protein A-Sepharose 4B beads (Sigma-Aldrich). All experiments were conducted at least three independent times.

HCT-116 cells [2] = test: anchorage-independent growth assay, HCT-116; type: cell-based, human
Description: An anchorage-independent growth assay was conducted with several modifications. Briefly, 5×10^4 cells were seeded in a 0.3% agar in DMEM containing 10% FBS over the bottom 0.6% agar layer in DIVIEM. After incubation for 14 days, the number and size of colonies were scored.

β4 integrin/FAK complex [3] = test: co-immunoprecipitation of β4 integrin and FAK in MDA-MB-231 cells; type: cell-based, human
Description: (§2) Various plasmid-transfected or pharmacologically treated cells or tissue samples were homogenized and extracted for Western blot analyses. About 10-20 μg whole cell lysate were used for Western blotting. A 1 mg/ml concentration of total protein from cell lysates was employed for immunoprecipitation. Some extracts subjected to immunoprecipitation were incubated with antibodies, as indicated, for 4 h at 4° C., followed by incubation for 4 h or overnight with protein A-Sepharose 4B or protein G-Sepharose beads (Sigma-Aldrich) before proceeding to Western blot analysis. Each experiment was repeated at least three independent times.

FAK phospho-Tyr397 = test: Western blot of FAK phospho-Tyr397 in MDA-MB-231 cells; type: cell-based, human
Description: as §2

β4 integrin at Tyr1526 = test: Western blot of β4 integrin tyrosine phosphorylation in MDA-MB-231 cells; type: cell-based, human; details: 10 μM
Description: as §2

[4] = system: FAK autophosphorylation at Tyr397; test: Western blot of FAK autophosphorylation at Tyr397 in HCT-116 cells; type: cell-based, human
Description: as §1

paxillin/FAK complex = test: specificity: paxillin/FAK complex in NIH3T3; type: cell-based, mouse; details: overexpressed in NIH3T3
Chain of paxillin/FAK complex (Q8VI36 whole entry): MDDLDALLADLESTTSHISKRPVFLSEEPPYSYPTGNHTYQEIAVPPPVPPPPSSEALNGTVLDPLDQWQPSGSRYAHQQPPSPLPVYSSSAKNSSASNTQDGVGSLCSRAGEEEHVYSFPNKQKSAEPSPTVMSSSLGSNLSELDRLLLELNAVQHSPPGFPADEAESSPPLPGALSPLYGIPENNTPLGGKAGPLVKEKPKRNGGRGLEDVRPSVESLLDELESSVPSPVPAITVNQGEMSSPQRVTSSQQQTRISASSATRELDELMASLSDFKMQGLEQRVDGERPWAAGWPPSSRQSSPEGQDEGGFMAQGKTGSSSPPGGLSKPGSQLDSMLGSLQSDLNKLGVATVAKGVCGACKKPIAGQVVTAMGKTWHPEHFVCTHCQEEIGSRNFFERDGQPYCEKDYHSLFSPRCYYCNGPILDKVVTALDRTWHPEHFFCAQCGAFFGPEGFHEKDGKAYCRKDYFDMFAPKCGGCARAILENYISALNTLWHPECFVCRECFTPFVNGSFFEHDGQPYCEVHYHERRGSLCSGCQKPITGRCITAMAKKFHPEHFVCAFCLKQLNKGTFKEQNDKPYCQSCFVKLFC
Chain of paxillin/FAK complex (P34152 whole entry, further chain): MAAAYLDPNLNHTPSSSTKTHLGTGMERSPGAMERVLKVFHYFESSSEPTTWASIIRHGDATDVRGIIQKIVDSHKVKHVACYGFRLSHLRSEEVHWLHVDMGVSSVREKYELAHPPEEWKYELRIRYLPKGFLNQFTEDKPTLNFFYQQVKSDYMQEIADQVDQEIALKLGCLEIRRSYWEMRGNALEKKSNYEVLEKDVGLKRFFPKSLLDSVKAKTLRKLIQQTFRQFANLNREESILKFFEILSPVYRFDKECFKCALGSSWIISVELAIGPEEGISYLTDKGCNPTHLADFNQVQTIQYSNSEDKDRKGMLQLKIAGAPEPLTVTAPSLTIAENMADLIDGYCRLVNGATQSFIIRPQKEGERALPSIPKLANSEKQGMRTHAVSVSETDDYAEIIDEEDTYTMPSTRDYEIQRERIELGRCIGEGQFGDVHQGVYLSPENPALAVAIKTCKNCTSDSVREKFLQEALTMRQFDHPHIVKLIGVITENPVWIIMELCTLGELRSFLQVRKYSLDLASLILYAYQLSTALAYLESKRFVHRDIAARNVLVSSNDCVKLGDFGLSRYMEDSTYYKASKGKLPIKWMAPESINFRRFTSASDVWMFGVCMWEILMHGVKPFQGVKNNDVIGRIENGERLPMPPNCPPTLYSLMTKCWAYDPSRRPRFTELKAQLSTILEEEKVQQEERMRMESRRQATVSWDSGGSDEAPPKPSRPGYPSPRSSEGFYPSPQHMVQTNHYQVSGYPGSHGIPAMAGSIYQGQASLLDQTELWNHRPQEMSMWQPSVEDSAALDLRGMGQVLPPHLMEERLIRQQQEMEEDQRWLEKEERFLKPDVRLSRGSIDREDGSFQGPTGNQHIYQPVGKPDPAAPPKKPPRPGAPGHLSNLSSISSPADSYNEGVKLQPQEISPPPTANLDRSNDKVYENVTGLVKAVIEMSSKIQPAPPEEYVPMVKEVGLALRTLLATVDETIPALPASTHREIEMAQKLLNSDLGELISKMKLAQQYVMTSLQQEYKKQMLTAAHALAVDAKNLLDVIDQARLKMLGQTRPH

NIH3T3 = test: specificity: β1 integrin-mediated cell migration in NIH3T3; type: cell-based, mouse; details: overexpressed in NIH3T3
MDA-MB-231 cells [5] = test: BrdU incorporation cell proliferation assay, MDA-MB-231; type: cell-based, human; details: MDA-MB-231 transfectants; compared to mock and triple-mutant cells
Description: At 24 h after transfection, 2×10^4 cells were serum starved for 24 h. Cells were then washed twice with DMEM and incubated for 16 h in DMEM plus 10% FBS and 100 μM BrdU (Sigma-Aldrich). After that, cells were fixed, permeabilized, heated with DNase I, and processed for immunofluorescence staining, with anti-BrdU (1:200, Sigma-Aldrich) antibody, as described previously^39, with a few modifications. Cells were then counted in multiple fields and scored for BrdU-positive staining in each independent experiment.

MDA-MB-231 cells [6] = test: in vivo tumorigenesis, orthotopic injection into mammary fat pad; details: stably expressing MDA-MB-231 cells in mammary fat pad of nude mice; 12 weeks
Description: (§3) All mouse experiments were approved by the Institutional Animal Care and Use Committee, National Taiwan University (Taipei, Taiwan). All experimental procedures were performed in accordance with the protocols and the ethical regulations approved by the Institutional Animal Care and Use Committees of National Taiwan University (Taipei, Taiwan). Female nu/nu mice were purchased from the National Laboratory Animal Center (Taipei, Taiwan). For tumorigenesis, 1×10^6 MDA-MB-231 stably transfected pools expressing GFP-tagged FAK/25aa, its triple (FAK/25aa^E380A/K381A/Q382A)or double (FAK/25aa^R385A/S386A) mutant, or a mock transfected control that had been selected by 500 μg/ml G418 for 2 weeks were injected into the 3rd mammary fat pad of eight-week-old female nu/nu mice. Stably transfected pools of each construct were injected in 100 μl PBS. Tumor volumes and numbers were measured at 12 weeks after injection and then excised, photographed, and weighted. For tumor metastasis, 1×10^6 MDA-MB-231 cells, described above, that were labeled with luciferase by lentiviral infection were resuspended in 100 μl PBS and injected into the tail vein of six-week-old female nu/nu mice. Lung metastasis was monitored by bioluminescent imaging using an IVIS spectrum imaging system. Lung metastasis was measured on the respective day after injection.

MDA-MB-231 cells [7] = test: in vivo lung metastasis after tail vein injection, bioluminescence; parameters: species or system nude mice; details: MDA-MB-231 transfectants, 84 days after injection, vs mock and triple mutant
Description: as §3

HCT-116 cells [8] = test: BrdU incorporation assay, HCT-116; type: cell-based, human; details: HCT-116 cells overexpressing the peptide
Description: A BrdU incorporation assay was performed. Briefly, serum-starved cells were incubated in DMEM with 10% FBS and 100 μM BrdU (Sigma-Aldrich) for 16 hrs. Cells were fixed, permeabilized, treated with DNase I, and processed for immunofluorescence staining with anti-BrdU (Sigma-Aldrich) antibody. The BrdU-positive staining cells were scored.

HCT-116 cells [9] = test: in vivo tumorigenicity, subcutaneous xenograft mouse model; details: ectopic expression in HCT-116 cells, subcutaneous in SCID mice; 21 days
Description: Here. FAK and FRNK transfectants were used as controls. […] All results are presented as the means ±s.d. from at least three independent experiments (*. p<0.05, compared with the corresponding mock control). […] An in vivo tumorigenicity assay was conducted using a xenograft mouse model by subcutaneously injecting cells described above into SCID mice. Mice were sacrificed 21 days after tumor injection. Tumor mass (left, top), protein expression (left, bottom), and tumor weight (right) of the xenografts were measured. Five mice were assessed for each group (Scale bar, 1 cm. *, p<0.05, compared with the corresponding mock control).

MDA-MB-231 cells [10] = test: anchorage-independent growth in soft agar assay, MDA-MB-231; type: cell-based, human; details: in comparison with the TAT alone, peptide 10 μM or 50 μM
Description: Experiments were performed as previously described'^9, with the following modifications. A total of 5×10^4 cells were seeded in 0.3% agar in DMEM plus 10% […] and EGF (10 ng/ml) over the bottom 0.6% agar layer in DMEM. After incubation for 14 days, the number of colonies was scored.

β4 integrin [11] = molecular target: T1, β4 integrin (human, UniProt P16144 28-1822, limits assumed); test: Ni-bead pull-down from MDA-MB-231 lysate, anti-β4 integrin Western blot (FIG. 1(g))
T1 construct: Endogenous full-length β4 integrin in lysates or immunoprecipitates; In cells it is paired with α6 integrin; also called integrin β4; ITGB4
T1 sequence (P16144 28-1822 limits assumed): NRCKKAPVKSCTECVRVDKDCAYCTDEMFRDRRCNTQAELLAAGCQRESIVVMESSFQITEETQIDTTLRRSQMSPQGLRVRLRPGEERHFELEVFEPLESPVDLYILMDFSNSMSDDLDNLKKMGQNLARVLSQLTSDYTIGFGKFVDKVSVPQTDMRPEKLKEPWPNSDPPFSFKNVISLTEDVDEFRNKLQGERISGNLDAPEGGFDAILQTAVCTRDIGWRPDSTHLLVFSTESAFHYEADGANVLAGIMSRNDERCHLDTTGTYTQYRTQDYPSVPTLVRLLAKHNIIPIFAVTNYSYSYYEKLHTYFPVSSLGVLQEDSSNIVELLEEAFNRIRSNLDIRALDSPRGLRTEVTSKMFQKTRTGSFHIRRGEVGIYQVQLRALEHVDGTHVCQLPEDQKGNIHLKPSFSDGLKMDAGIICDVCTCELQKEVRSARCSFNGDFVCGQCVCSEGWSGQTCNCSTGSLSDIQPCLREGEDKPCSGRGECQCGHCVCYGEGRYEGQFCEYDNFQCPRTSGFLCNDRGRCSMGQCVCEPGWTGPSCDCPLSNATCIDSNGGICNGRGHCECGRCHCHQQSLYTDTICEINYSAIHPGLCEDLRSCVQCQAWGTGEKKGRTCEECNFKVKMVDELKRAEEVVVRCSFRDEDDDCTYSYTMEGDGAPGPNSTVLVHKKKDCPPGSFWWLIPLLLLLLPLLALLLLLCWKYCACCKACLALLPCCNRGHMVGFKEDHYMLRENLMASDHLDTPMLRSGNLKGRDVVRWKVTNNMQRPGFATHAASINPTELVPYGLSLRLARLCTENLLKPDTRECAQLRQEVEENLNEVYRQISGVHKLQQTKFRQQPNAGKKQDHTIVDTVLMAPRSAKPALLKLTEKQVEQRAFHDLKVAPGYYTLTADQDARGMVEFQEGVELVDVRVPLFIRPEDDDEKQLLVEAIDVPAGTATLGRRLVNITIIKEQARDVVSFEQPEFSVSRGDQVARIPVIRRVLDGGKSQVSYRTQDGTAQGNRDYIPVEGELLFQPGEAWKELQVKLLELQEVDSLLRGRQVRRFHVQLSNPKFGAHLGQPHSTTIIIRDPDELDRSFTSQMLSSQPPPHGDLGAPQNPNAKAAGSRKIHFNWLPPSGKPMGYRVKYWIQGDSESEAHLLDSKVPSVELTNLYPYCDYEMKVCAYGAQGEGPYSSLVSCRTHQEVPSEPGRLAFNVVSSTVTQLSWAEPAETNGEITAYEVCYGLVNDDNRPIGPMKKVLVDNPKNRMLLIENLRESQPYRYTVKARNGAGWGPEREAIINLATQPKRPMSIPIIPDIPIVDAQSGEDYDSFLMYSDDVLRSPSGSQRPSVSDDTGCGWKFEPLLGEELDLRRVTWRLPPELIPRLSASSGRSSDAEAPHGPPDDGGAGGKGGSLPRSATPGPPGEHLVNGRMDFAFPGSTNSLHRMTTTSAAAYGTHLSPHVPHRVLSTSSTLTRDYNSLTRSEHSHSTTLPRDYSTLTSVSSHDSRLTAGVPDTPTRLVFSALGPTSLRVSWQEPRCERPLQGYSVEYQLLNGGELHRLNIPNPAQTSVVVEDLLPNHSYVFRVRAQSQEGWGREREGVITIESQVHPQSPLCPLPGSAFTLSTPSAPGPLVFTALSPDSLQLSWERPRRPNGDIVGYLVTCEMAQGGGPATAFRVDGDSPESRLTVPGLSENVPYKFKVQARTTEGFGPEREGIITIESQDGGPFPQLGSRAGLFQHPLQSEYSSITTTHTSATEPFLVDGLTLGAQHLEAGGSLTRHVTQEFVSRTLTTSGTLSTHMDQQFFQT

β4 integrin [12] = molecular target: T1, β4 integrin; test: GST pull-down from HCT-116 lysate, anti-β4 integrin Western blot (FIG. 9(C))
[13] = molecular target: T2, focal adhesion kinase (FAK) (human, UniProt Q05397 2-1052); test: HA-tagged β4 fragments in HEK-293 cells (FIG. 9F)
T2 construct: Endogenous FAK in lysates of human cells and tissues; also called full-length FAK; FAX [sic]
T2 sequence (Q05397 2-1052 limits assumed): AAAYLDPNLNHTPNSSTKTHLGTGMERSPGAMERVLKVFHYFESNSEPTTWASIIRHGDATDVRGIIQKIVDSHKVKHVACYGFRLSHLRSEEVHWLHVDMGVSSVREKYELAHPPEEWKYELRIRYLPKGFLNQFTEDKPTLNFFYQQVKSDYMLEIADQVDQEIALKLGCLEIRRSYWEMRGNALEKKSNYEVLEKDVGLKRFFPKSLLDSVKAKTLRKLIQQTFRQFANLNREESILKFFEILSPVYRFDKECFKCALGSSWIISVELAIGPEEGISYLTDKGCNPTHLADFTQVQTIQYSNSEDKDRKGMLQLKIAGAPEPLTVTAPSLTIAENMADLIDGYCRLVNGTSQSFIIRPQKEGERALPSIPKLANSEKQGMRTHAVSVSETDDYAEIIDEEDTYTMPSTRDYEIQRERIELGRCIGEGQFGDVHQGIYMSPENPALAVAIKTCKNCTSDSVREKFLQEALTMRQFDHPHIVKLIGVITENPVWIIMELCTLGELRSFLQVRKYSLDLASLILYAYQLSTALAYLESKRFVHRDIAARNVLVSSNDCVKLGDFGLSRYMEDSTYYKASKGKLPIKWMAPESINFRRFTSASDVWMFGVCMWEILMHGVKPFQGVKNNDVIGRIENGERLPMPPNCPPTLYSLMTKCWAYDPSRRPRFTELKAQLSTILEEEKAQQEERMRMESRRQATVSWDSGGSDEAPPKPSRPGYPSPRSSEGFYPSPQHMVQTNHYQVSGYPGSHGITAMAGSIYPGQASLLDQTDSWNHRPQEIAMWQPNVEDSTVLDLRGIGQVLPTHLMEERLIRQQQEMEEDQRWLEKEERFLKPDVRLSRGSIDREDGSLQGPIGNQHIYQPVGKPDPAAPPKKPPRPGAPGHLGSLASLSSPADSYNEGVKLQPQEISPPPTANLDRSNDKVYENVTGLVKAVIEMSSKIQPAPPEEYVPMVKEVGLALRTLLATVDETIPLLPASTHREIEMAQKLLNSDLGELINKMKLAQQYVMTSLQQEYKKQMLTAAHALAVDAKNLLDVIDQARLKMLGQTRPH

β4 integrin [14] = molecular target: T1, β4 integrin; test: overexpression in HCT-116 cells

`CS(=O)(=O)c1cccc(CNc2nc(Nc3ccc4c(c3)CCC(=O)N4)ncc2C(F)(F)F)c1` [PF-573,228, reference compound] was tested, and the “β4 integrin/FAK complex formation” value (β4 integrin/FAK complex [1]; FAK activity inhibited, 10 μM) was “still formed” and the “anchorage-independent growth (soft agar)” value (HCT-116 cells [2]; HCT-116 cells treated with FAK inhibitor, DMSO control) was “impairs”.

With `CC(C)(C)n1nc(-c2ccc(Cl)cc2)c2c(N)ncnc21` [PP2] the “formation of the β4 integrin/FAK complex” value (β4 integrin/FAK complex [3]; MDA-MB-231 cells, 10 μM, compared to PP3- or DMSO-treated cells) was “markedly reduced”, the “interaction between β4 integrin and FAK under EGF stimulation” value (β4 integrin/FAK complex [3]; serum-starved MDA-MB-231 cells, EGF 10 ng/ml, inhibitor 10 μM) was “remained absent” and the “phosphorylation level of FAK at Tyr397” value (FAK phospho-Tyr397; MDA-MB-231 cells, 10 μM) was “reduced”. The “phosphorylation level of β4 integrin at Tyr1526” value (β4 integrin at Tyr1526) was “reduced”, the “β4 integrin and FAK association in response to EGF stimulation” value (β4 integrin/FAK complex [1]; EGF stimulation) was “ablated” and the “β4 integrin/FAK complex formation” value (β4 integrin/FAK complex [1]; blockade of Src activity) was “decrease”. The “FAK activation in response to EGF stimulation” value ([4]; HCT-116 cells, EGF stimulation) was “ablated” and the FAK activation ([4]; HCT-116 cells, blockade of Src activity) was “alleviate”.

“FAK/25aa: the 376th to 400th amino acids of FAK, SEQ ID NO: 3; overexpressed GFP-tagged in cells (LANNEKQGVRSHTVSVSETDDYAEI; also: GFP tag)” was tested, and the “level of FAK co-immunoprecipitated by β4 integrin” value (β4 integrin/FAK complex [3]; MDA-MB-231 cells, increased expression of the peptide) was “attenuated in a dose-dependent manner”, the “FAK phospho-Tyr397” value (FAK phospho-Tyr397; transfected MDA-MB-231 cells, in comparison to mock or triple-mutant transfectants) was “decreased” and the paxillin/FAK complex (paxillin/FAK complex) was “not affected”. The “β1 integrin-mediated cell migration” value (NIH3T3) was “not affected”, the cell proliferation (MDA-MB-231 cells [5]) was “decreased” and the “size and weight of tumors” value (MDA-MB-231 cells [6]) was “significant reductions”. For the same molecule, the lung metastatic nodules (MDA-MB-231 cells [7]) was “less-developed”, the “interaction between β4 integrin and FAK” value (β4 integrin/FAK complex [1]; overexpressed motif) was “ablated” and the “Tyr397-autophosphorylation of FAK” value ([4]; transfected HCT-116 cells) was “diminished”. The cell proliferation (HCT-116 cells [8]) was “impaired”, the anchorage-independent growth (HCT-116 cells [2]; HCT-116 transfectants, compared with mock and triple-mutant cells) was “considerably decreased” and the “volume and weight of implanted colon cancer tumors” value (HCT-116 cells [9]) was “significantly reduced”.

With “TAT-FAK/25aa: synthesized peptide, FAK/25aa fused with the TAT peptide; sequence GRKKRRQRRRPQLANNEKQGVRSHTVSVSETDDYAE1 (GRKKRRQRRRPQLANNEKQGVRSHTVSVSETDDYAEI)” the “formation of the β4 integrin/FAK complex” value (β4 integrin/FAK complex [3]; MDA-MB-231 cells, extracellular administration of peptide (10 μM)) was “capable of alleviating” and the “foci less formed in soft agar” value (MDA-MB-231 cells [10]) was “approximately 30%”.

B1: His-tagged FAK/N375 (other)
chain: MAAAYLDPNLNHTPSSSAKTHLGTGMERSPGAMERVLKVFHYFENSSEPTTWASIIRHGDATDVRGIIQKIVDCHKVKNVACYGLRLSHLQSEEVHWLHLDMGVSNVREKFELAHPPEEWKYELRIRYLPKGFLNQFTEDKPTLNFFYQQVKNDYMLEIADQVDQEIALKLGCLEIRRSYGEMRGNALEKKSNYEVLEKDVGLRRFFPKSLLDSVKAKTLRKLIQQTFRQFANLNREESILKFFEILSPVYRFDKECFKCALGSSWIISVELAIGPEEGISYLTDKGANPTHLADFNQVQTIQYSNSEDKDRKGMLQLKIAGAPEPLTVTAPSLTIAENMADLIDGYCRLVNGATQSFIIRPQKEGERALPSIPK
notes: Recombinant protein from E. coli; not shown: His tag
B1: no binding (β4 integrin [11]).

B2: GST-FAK/N375 (other)
chain: MAAAYLDPNLNHTPSSSAKTHLGTGMERSPGAMERVLKVFHYFENSSEPTTWASIIRHGDATDVRGIIQKIVDCHKVKNVACYGLRLSHLQSEEVHWLHLDMGVSNVREKFELAHPPEEWKYELRIRYLPKGFLNQFTEDKPTLNFFYQQVKNDYMLEIADQVDQEIALKLGCLEIRRSYGEMRGNALEKKSNYEVLEKDVGLRRFFPKSLLDSVKAKTLRKLIQQTFRQFANLNREESILKFFEILSPVYRFDKECFKCALGSSWIISVELAIGPEEGISYLTDKGANPTHLADFNQVQTIQYSNSEDKDRKGMLQLKIAGAPEPLTVTAPSLTIAENMADLIDGYCRLVNGATQSFIIRPQKEGERALPSIPK
notes: Recombinant protein from E. coli; not shown: GST of the pGEX-2T vector
B2: no binding (β4 integrin [12]).

B3: β4-CalX (other, UniProt P16144 979-1084, looked up)
chain: VNITIIKEQARDVVSFEQPEFSVSRGDQVARIPVIRRVLDGGKSQVSYRTQDGTAQGNRDYIPVEGELLFQPGEAWKELQVKLLELQEVDSLLRGRQVRRFHVQLS
notes: domain: Na+/Ca2+ exchanger homologous motif (CalX); also called β4 Na+/Ca2+ exchanger homologous motif; HA-tagged β4-CalX; not shown: HA tag of the pKH3 vector
B3: no binding [13].

B4: GFP-tagged FAK/25aa^R385A/S386A (peptide)
chain: LANNEKQGVAAHTVSVSETDDYAEI
modifications: also: GFP tag
notes: Positions are printed in full-length FAK numbering; also called double mutant of FAK/25aa; not shown: GFP of the pEGFP vector
B4: binds (β4 integrin [14]).
